Legend:
[1] = Phase 1 single ascending dose study, plasma pharmacokinetics; type: in vivo, human; conditions: oral capsule 5 mg to 600 mg, fasted healthy males
Protocol: This study was a randomized, double-blind, placebo-controlled single ascending dose (SAD) and crossover studies for food effect and capsule/tablet formulations.
Samples for pharmacokinetic (PK) and PD assessment were taken at repeated intervals over 48 hours.
Plasma samples used for PK assessment were analysed using a validated liquid chromatography tandem mass spectrometry (LC MS/MS) method.

[2] = Phase 2 study, safety (drug-related TEAEs); type: in vivo, human
Description: Safety Variables: • AEs, including serious adverse events (SAEs). • Laboratory test results (clinical chemistry, hematology, coagulation, and urinalysis). • Vital signs (SBP, DBP, PR, RR, body temperature). • Physical examination findings. • ECG results. • Pregnancy test (female subjects of child-bearing potential).
AEs were coded using the Medical Dictionary for Regulatory Activities (MedDRA) dictionary (v21.0 or higher) and classified by preferred term and system organ class (SOC). Listings of treatment-emergent adverse events (TEAEs), serious TEAEs, and TEAEs causing premature discontinuation will be provided by sequence group, and further classified by TEAE severity and relationship to study drug.

[3] = Phase 1 multiple dose study, safety, tolerability and ECG; type: in vivo, human; conditions: total 1800 mg, healthy adults
Protocol: This was a phase 1, double-blind, placebo-controlled, multiple-dose, multiple-cohort study to evaluate safety and tolerability of the compound as well as of the ECG effects of the compound formulated as 100 mg Film Coated Tablets in healthy adult male and female subjects.
Four (4) cohorts were evaluated. Cohorts 1, 2 and 3 included 8 subjects each. Cohort 4 included 18 subjects. Every attempt was made to include an equal number of male and female subjects in each cohort.
During the study, oral doses of 600 mg of the compound as Film Coated Tablets (six 100 mg tablets) or 6 matching placebo tablets were administered once every 8 hours (Cohort 1) every 4 hours (Cohort 2), or every 2 hours (Cohort 3 and 4) to healthy adult male and female subjects up to a total dose of 1800 mg. In Cohorts 1, 2 and 3, 6 subjects received the compound as 100 mg Film Coated Tablets and 2 subjects received the placebo for a total of 8 subjects per cohort. In Cohort 4, 12 subjects received the compound as 100 mg Film Coated Tablets and 6 subjects received the placebo for a total of 18 subjects.
A Holter monitor was attached to each subject in order to continuously record ECGs. The monitor was attached 1 hour before the first dose and remained attached until after the final blood sample collection. The electrodes for the Holter monitor were checked by a member of the clinic staff at appropriate intervals to ensure they were attached.

[4] = system: plasma prekallikrein; assay: Phase 1 study, ex vivo DXS-stimulated cleavage of plasma prekallikrein (Wes); type: in vivo, human; conditions: 600 mg capsules, up to 12 hrs post-dose
Description: DXS-stimulated cleavage of plasma prekallikrein and Factor XII (FXII) were quantified by capillary-based immunoassay on the Wes System (ProteinSimple) analogously.

[5] = target: plasma kallikrein (Homo sapiens, UniProt P03952); assay: Phase 1 study, ex vivo PKa catalytic activity in DXS-stimulated undiluted plasma; parameters: samples from a Phase 1 Single Ascending Dose Study in healthy adult males; from tissue; host or cells: undiluted plasma of healthy adult male volunteers after oral dosing; conditions: 600 mg tablet
Protocol: PD measurements were determined in dextran sulfate (DXS) stimulated undiluted plasma using a fluorogenic enzyme assay and capillary based HK cleavage immunoassay.
The time until appearance of detectable amidolytic enzyme activity in DXS-stimulated plasma (lag time) was calculated from the catalytic activity assay. The detection sensitivity of the rate of catalytic activity in plasma based on using a Spark (Tecan) fluorimeter is a fluorescence increase to reach 1ΔF unit/sec.

[6] = system: HK; assay: Phase 1 study, ex vivo DXS-stimulated cleavage of HK (Wes capillary immunoassay); type: in vivo, human; conditions: 600 mg capsules, up to 12 hrs post-dose
Protocol: DXS-stimulated cleavage of HK, in undiluted plasma was quantified by capillary-based immunoassay on the Wes System (ProteinSimple) using monoclonal anti-HK antibody and chemiluminescence-based detection. Plasma kallikrein mediated HK cleavage in undiluted citrated human plasma was induced by contact system activation with DXS (6.25 μg/ml) at 4° C. in selected samples from the SAD phase.

[7] = 3 x 600 mg every 8, 4 or 2 hours

plasma kallikrein, sequence (P03952 391-638 limits assumed): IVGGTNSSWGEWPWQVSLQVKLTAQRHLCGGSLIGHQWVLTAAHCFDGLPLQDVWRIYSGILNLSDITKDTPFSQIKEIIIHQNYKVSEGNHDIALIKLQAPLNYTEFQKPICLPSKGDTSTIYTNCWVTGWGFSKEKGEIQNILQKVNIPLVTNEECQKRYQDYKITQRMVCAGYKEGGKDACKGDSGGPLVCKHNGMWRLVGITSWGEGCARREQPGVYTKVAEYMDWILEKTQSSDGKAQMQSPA
plasma kallikrein, sequence (P03952 20-390 partner limits assumed): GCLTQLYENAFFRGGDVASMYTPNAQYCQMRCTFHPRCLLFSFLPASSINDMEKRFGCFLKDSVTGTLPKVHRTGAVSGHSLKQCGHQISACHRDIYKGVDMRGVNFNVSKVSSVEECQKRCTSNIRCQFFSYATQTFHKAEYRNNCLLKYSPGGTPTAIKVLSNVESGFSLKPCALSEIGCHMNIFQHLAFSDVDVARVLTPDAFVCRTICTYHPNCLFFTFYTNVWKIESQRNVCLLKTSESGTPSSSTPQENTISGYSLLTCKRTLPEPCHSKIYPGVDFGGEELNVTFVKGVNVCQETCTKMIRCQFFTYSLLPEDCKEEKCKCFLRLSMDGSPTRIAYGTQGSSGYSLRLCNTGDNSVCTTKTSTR

- plasma exposure [1]: rapid and dose-dependent plasma exposure
- food effect on pharmacodynamic profile ([5]; fed vs fasted): no significant food-effect
SMILES: COCc1nn(Cc2ccc(Cn3ccccc3=O)cc2)cc1C(=O)NCc1nccc(OC)c1F [compound of Formula A, N-[(3-fluoro-4-methoxypyridin-2-yl)methyl]-3-(methoxymethyl)-1-({4-[(2-oxopyridin-1-yl)methyl]phenyl}methyl)pyrazole-4-carboxamide]
- on-treatment drug-related TEAE, number of events ([2]; Part 1, open-label phase): 8
- patients with on-treatment drug-related TEAE ([2]; Part 1, open-label phase): 5 patients
- on-treatment drug-related TEAE, number of events ([2]; Part 2, crossover phase): 3
- patients with on-treatment drug-related TEAE ([2]; Part 2, crossover phase): 5.2%
- serious adverse events [3, 7]: No serious adverse events
- severity of reported adverse events [3, 7]: mild
- effects on ECG parameters ([3]; 3 x 600 mg): No clinically relevant effects on the studied ECG parameters
- effect on PPK cleavage [4]: reduces PPK cleavage
- lag time until appearance of catalytic activity during contact system activation [5]: increases the time until appearance of catalytic activity
- effect on HK cleavage [6]: reduces HK cleavage
